Laboratory results from patent US9045505B2, “Nitric oxide donors” (University of Otago, priority 2006, dated 2015).

Key:
liver mitochondria = assay: S-nitrosation of mitochondrial protein thiols (chemiluminescence SNO assay); type: biochemical, rat; conditions: for S-nitrosation of mitochondrial proteins: 2.5 min incubation, SNAP even at 50 μM
Protocol: FIG. 11 is a series of graphs showing S-nitrosation of mitochondrial thiols by MitoSNAP. (a) Time course of S-nitrosation of mitochondrial proteins by MitoSNAP. Liver mitochondria (1 mg protein) were incubated in 1 ml KCl buffer supplemented with rotenone and succinate in the presence of 5 μM MitoSNAP. At various times mitochondria were treated with 10 mM N-ethylmaleimide (NEM), isolated by centrifugation and the S-nitrosothiol content assessed. Data are of a typical experiment showing means±range of duplicate samples for each time point, each measured in duplicate. The experiment was repeated twice. (b) S-nitrosation of mitochondrial proteins by different concentrations of MitoSNAP and SNAP. Aliquots of liver mitochondria were incubated with the indicated concentrations of MitoSNAP or SNAP for […] in the presence or absence of 500 nM FCCP and then assessed for S-nitrosothiol content as in (a). For the +NEM sample, 10 mM NEM was added to the mitochondria and 1 min later 5 μM MitoSNAP was added and incubated for a further 2.5 min. Data are of a typical experiment showing means±range of duplicate samples for each time point, each measured in duplicate. The experiment was repeated twice. (c) S-nitrosation of cellular protein thiols by MitoSNAP. C2C12 cells were preincubated for 5 min in 2 ml cell culture medium containing either 20 μM FCCP or DMSO carrier, then 5 μM MitoSNAP or SNAP was added. After further incubation for 5 min at 37° C. in the dark, the medium was removed and the content of S-nitrosated proteins was measured. Data are means±range of the duplicate determinations. […] (d) S-nitrosation of a mitochondria-enriched cell subfraction. C2C12 cells were preincubated for 5 min in cell culture medium containing either 20 μM FCCP or dimethylsulfoxide (DMSO) carrier, then 5 μM MitoSNAP was added. After 5 min at 37° C. in the dark, the medium was removed and the cells were processed to isolate a mitochondria-enriched fraction and S-nitrosated protein was then determined Data are mean±sem of triplicate determinations (+MitoSNO1), or mean±range of duplicate determinations (+FCCP). (e & f) Visualisation of S-nitrosated mitochondrial proteins by copper/ascorbate-dependent labelling of thiols with a Cy3 fluorophore. Liver (e) or heart (f) mitochondria (1 mg protein) were incubated in 1 ml KCl buffer supplemented with rotenone and succinate in the presence of no additions, 10 μM MitoSNAP or 500 μM diamide for 5 min. S-nitrosated thiols were then selectively tagged with Cy3 maleimide and protein (10 μg) was then separated on a 12.5% SDS PAGE gel which was stained with coomassie blue and scanned for Cy3 fluorescence. The Cy3 fluorescence (SNO) and coomassie staining (coomassie) of each gel is shown.
FIG. 13 is a trace and graph showing limited S-nitrosation of mitochondria by DetaNONOate. […] Where indicated 500 μM DetaNONOate was added and the concentration of NO^• was measured over time, before 5 μM OxyHb was added. […] Then protein pellets were resuspended and processed for analysis of protein S-nitrosothiols. Control incubations in the presence of 10 mM NEM were also carried out. Data are means±range of two independent experiments each being the average of four mitochondrial incubations.
Nitrite, nitric oxide and S-nitrosothiol measurements. Nitrite was analyzed by the Griess assay (Molecular Probes). Nitric oxide was measured using an NO^• electrode (World Precision Instruments Ltd, UK) connected to an Apollo 4000 Free Radical Analyser. The electrode was inserted into a stirred, sealed 3 ml chamber with a Clark type O2 electrode (Rank Brothers, UK) built into its base and was thermostatted at 37° C. The NO^• electrode was calibrated by adding SNAP to argon-purged, saturated CuCl. OxyHb was prepared by reduction of bovine methemoglobin with sodium dithionite.

[1] = tested on: endothelium-denuded rat small mesenteric artery; assay: Vasorelaxation of endothelium-denuded rat small mesenteric artery; conditions: logistic fit; for EC50: Rattus norvegicus, precontracted with methoxamine
Protocol: FIG. 17 is a graph showing vasorelaxation of endothelium-denuded rat small mesenteric artery preparations by MitoSNAP and SNAP. To measure vessel relaxation in endothelium-denuded rat mesenteric artery male Wistar rats (250-350 g) were anesthetized with sodium pentobarbitone (60 mg/kg ip Sagatal, Rhone Merieux, Harlow, Essex UK). The mesentery was removed and placed in ice-cold, gassed (95% O2/5% CO2) Krebs-Henseleit buffer. […] Vessels were maintained at 37° C. in Krebs-Henseleit solution containing indomethacin (10 μM) and bubbled with 95% O2/5% CO2 and were allowed to equilibrate under zero tension for 60 min. After equilibration vessels were normalized to a tension equivalent that generated at 90% of the diameter of the vessel at 100 mm Hg^3. Vessels were precontracted with methoxamine and then sequential cumulative additions of test compounds were made to relax the vessels shielded from direct light. Relaxation of muscle tone are expressed as a percentage of relaxation of the initial tone. Data are means of four determination of MitoNAP and MitoSNAP and of 6 for SNAP. Data from the dose-response curves were fitted to a logistic curve, with the following parameters: […]

Row | Structure (SMILES) | S-nitrosation of mitochondrial proteins (liver mitochondria) | EC50 [1] [nM] | max. relaxation of induced tone [1] [%] | slope function (Hill slope) [1] | maximum S-nitrosation as share of the total number of protein thiols available (liver mitochondria; 5 μM) [%] | maximum extent of mitochondrial protein S-nitrosation (liver mitochondria; 5 μM) [pmol SNO/mg protein] | S-nitrosated proteins after sulfosalicylic acid lysis and precipitation (control experiment) (liver mitochondria; 5 μM, 5 min, mean±SEM of 4) [pmol SNO/mg protein] | time of peak S-nitrosation of mitochondrial proteins (liver mitochondria; 5 μM, liver mitochondria) [min]
1 | CC(=O)NC(C(=O)O)C(C)(C)SN=O (racemic) [SNAP, S-nitroso-N-acetyl-DL-penicillamine, reference compound] | negligible S-nitrosation | 5.2 ± 0.5 | 92±2 | 1.0±0.1 |  |  |  | 
2 | CC(=O)NC(C(=O)NCCCCC[P+](c1ccccc1)(c1ccccc1)c1ccccc1)C(C)(C)SN=O.CS(=O)(=O)[O-] (stereo not drawn) [MitoSNAP, [5-(2-acetylamino-3-methyl-3-nitrosothio-butyrylamino)-penty1]-triphenylphosphonium methanesulfonate] | extensive, concentration-dependent S-nitrosation | 16.5 ± 1.1 | 96±1 | 1.3±0.1 | ~1 | ~500 | 359±89 | 2 to 3
